We go through two molecules from US5902787A, “Chemically modified a-macroglobulins, methods of making, and methods of using the same in anti-cytokine therapy” (The University of Virginia Patent Foundation, priority 1997, dated 1999).

The subject of series [1] is ciliary neurotrophic factor. To be noted: literature (Wolf et al.); cited from earlier work.
Series [2] concerns the target TNF-α. The settings on record: literature (Wolf et al.); read-out: KD, TNF-α binding to α2M; cited from earlier work.
The subject of another series is mice. Description: Toxicity of IP human MAC in mice. It is filed as in vivo. The settings on record: 1.0, 2.5 or 5.0 mg IP, 5 days of observation. The protocol:
Equivalent concentrations of human α2 M (native, unmodified form) were injected IP in separate animals, as a control. Each concentration of MAC or human α2 M was studied in duplicate. […] The animals were sacrificed after 5 days of observation.

The test system of series [3] is TNF-α. Description: Nondenaturing PAGE binding of 125I-TNF-α to α2M forms. To be noted: 125I-TNF-α 1 nM, α2M preparation 1.0 μM, 1 h at 37° C. The protocol: Nondenaturing PAGE was performed on 5% slabs.
The incubation mixtures were then subjected to nondenaturing PAGE, a method that allows recovery of noncovalent as well as covalent α2 M-cytokine complexes. Gonias et al., Ann. […] The TNF-α was detected by autoradiography or Phosphor-Imager analysis.
Crookston et al, Wollenberg et at., Amer. J. Pathol.

A further series deals with interferon-γ. To be noted: literature (Wolf et al.); cited from earlier work.
A further series has as its system LPS-challenged mice. Description: LPS challenge, MAC pre-treatment, survival. The format is in vivo, CD-1 female mice. The settings on record: 2.5 mg IP 60 min prior to intravenous LPS.

Procedure for LPS-challenged mice: Survival curves for LPS-challenged mice, with or without MAC pre-treatment.CD-5 female mice were injected EP with 2.5 mg MAC (.box-solid.) or an equivalent volume of PBS (.circle-solid.). After 60 min, the mice were anesthetized and 57 mg/kg LPS were injected intravenously. The mice were monitored for up to 5 days and then sacrificed. Survival data are presented in panel a. In panel b, mice were injected IP with 2.0 mg MAC (Δ), 1.0 mg MAC (.smallcircle.), or 2.5 mg of native human α2 M (.quadrature.). LPS was injected 60 min later.
CD-1 female mice were obtained from Charles River Breeding Laboratories. Animals were kept on a 12:12 h dark-light cycle. Mice were anesthetized with diethyl ether prior to intravenous injections of LPS. All animals were observed on a continuous basis. Those entering a moribund condition were euthanized by cervical dislocation under anesthesia.

One may read the Kd as a measure of binding affinity in units of concentration. Turning to “native human α2 M: α2-macroglobulin purified from human plasma, native unmodified form”, in series [1], the “binding of ciliary neurotrophic factor to α2M” value is given as “do not bind”. For the same molecule, the Kd at TNF-α [2] was 5 to 10 µM. Also, in the series with mice, the “tolerability (neurologic status, respiratory rate, eating and drinking, general behavior)” value is “without outward changes in physiology”. Besides, in the series with TNF-α [3], the “binding of 125I-TNF-α (nondenaturing PAGE)” value was “not detected”. Moreover, in the series with interferon-γ, the “binding of interferon-γ to α2M” value is reported as “do not bind”. Moreover, the “animals that died within 24 h (deaths/total)” value with LPS-challenged mice is recorded as 4/4.

B1: native murine α2 M: α2-macroglobulin purified from the plasma of CD-1 female mice, native form (protein, UniProt Q61838 25-1495, looked up)
Pregnancy zone protein: ATAKPQYVVLVPSEVYSGVPEKACVSLNHVNETVMLSLTLEYAMQQTKLLTDQAVDKDSFYCSPFTISGSPLPYTFITVEIKGPTQRFIKKKSIQIIKAESPVFVQTDKPIYKPGQIVKFRVVSVDISFRPLNETFPVVYIETPKRNRIFQWQNIHLAGGLHQLSFPLSVEPALGIYKVVVQKDSGKKIEHSFEVKEYVLPKFEVIIKMQKTMAFLEEELPITACGVYTYGKPVPGLVTLRVCRKYSRYRSTCHNQNSMSICEEFSQQADDKGCFRQVVKTKVFQLRQKGHDMKIEVEAKIKEEGTGIELTGIGSCEIANALSKLKFTKVNTNYRPGLPFSGQVLLVDEKGKPIPNKNITSVVSPLGYLSIFTTDEHGLANISIDTSNFTAPFLRVVVTYKQNHVCYDNWWLDEFHTQADHSATLVFSPSQSYIQLELVFGTLACGQTQEIRIHYLLNEDIMKNEKDLTFYYLIKARGSIFNLGSHVLSLEQGNMKGVFSLPIQVEPGMAPEAQLLIYAILPNEELVADAQNFEIEKCFANKVNLSFPSAQSLPASDTHLKVKAAPLSLCALTAVDQSVLLLKPEAKLSPQSIYNLLPGKTVQGAFFGVPVYKDHENCISGEDITHNGIVYTPKHSLGDNDAHSIFQSVGINIFTNSKIHKPRFCQEFQHYPAMGGVAPQALAVAASGPGSSFRAMGVPMMGLDYSDEINQVVEVRETVRKYFPETWIWDLVPLDVSGDGELAVKVPDTITEWKASAFCLSGTTGLGLSSTISLQAFQPFFLELTLPYSVVRGEAFTLKATVLNYMSHCIQIRVDLEISPDFLAVPVGGHENSHCICGNERKTVSWAVTPKSLGEVNFTATAEALQSPELCGNKLTEVPALVHKDTVVKSVIVEPEGIEKEQTYNTLLCPQDTELQDNWSLELPPNVVEGSARATHSVLGDILGSAMQNLQNLLQMPYGCGEQNMVLFVPNIYVLNYLNETQQLTEAIKSKAINYLISGYQRQLNYQHSDGSYSTFGNHGGGNTPGNTWLTAFVLKAFAQAQSHIFIEKTHITNAFNWLSMKQKENGCFQQSGYLLNNAMKGGVDDEVTLSAYITIALLEMPLPVTHSAVRNALFCLETAWASISQSQESHVYTKALLAYAFALAGNKAKRSELLESLNKDAVKEEDSLHWQRPGDVQKVKALSFYQPRAPSAEVEMTAYVLLAYLTSESSRPTRDLSSSDLSTASKIVKWISKQQNSHGGFSSTQDTVVALQALSKYGAATFTRSQKEVLVTIESSGTFSKTFHVNSGNRLLLQEVRLPDLPGNYVTKGSGSGCVYLQTSLKYNILPVADGKAPFALQVNTLPLNFDKAGDHRTFQIRINVSYTGERPSSNMVIVDVKMVSGFIPMKPSVKKLQDQPNIQRTEVNTNHVLIYIEKLTNQTLGFSFAVEQDIPVKNLKPAPIKVYDYYETDEFTVEEYSAPFSDGSEQGNA
Take B1: the “binding of 125I-TNF-α (nondenaturing PAGE)” value in the series on TNF-α [3] is reported as “the level of binding was low”.
